# Data reported in patent US20260078135A1, “POLYCYCLIC QUINAZOLINES FOR INHIBITION OF ERBB2” (Enliven Inc., priority 2022, published 2026).
# Where a name gives a salt, the structure may show the parent alone.
# What was measured:
# Ba/F3 ERBB2 YVMA = Ba/F3 ERBB2 YVMA (Homo sapiens, UniProt P04626, DUP772-775, cells depend on it); assay: Cell viability assay (CellTiter Glo), Ba/F3 cells engineered to express ERBB2 YVMA; type: cell-based, mouse; details: Ba/F3 cells expressing human ERBB2 YVMA mutant, 72 hours, read-out: Ba/F3 ERBB2 YVMA, IC50
# Description: Cells were treated with compounds, and cell viability was measured as a metric of kinase inhibition.
# BT-474, A431, MDA-MB-175VII, NCI-H1781, MCF7, and Ba/F3 cell lines were tested. The Ba/F3 cell line is IL-3-dependent mouse cell line derived from the C3H mouse strain. Ba/F3 cell lines were engineered to express human ERBB2 or EGFR kinases, rendering the cells IL-3 independent. The lines were generated via retroviral transduction utilizing a Moloney murine leukemia virus (MMLV) promoter, and constructs are stably integrated into the cell genome. The sequences of the ERBB2 and EGFR genes used were NCBI Reference Sequences NM_004448.3 and NM_005228.3, respectively.
# BT-474, A431, MDA-MB-175VII, NCI-H1781 and MCF7 cells were grown in the appropriate growth medium as described in Table B2 below, and harvested at 50-80% confluence. BT-474, A431, MDA-MB-175VII, NCI-H1781 and MCF7 cells were counted and seeded at 2,000 or 1,500 cells per well in 384-well tissue culture plates (see Table B2). Similarly, Ba/F3 cell lines engineered to express EGFR, ERBB2, or ERBB2 mutants were grown, harvested, counted and seeded at 3000 cells per well in 96-well plates. A subset of wells contained media only (low control, “LC”).
# Table B1 provides the growth media and number of cells seeded per well for the each cell line.
# Compounds were dissolved in DMSO and serially diluted. Serially-diluted compound or a DMSO only control (high control, “HC”) was added to the plated cells in each well. Compounds were tested at concentrations of about 10 μM to 0.51 nM, using three-fold dilutions. The final proportion of DMSO never exceeded 0.1%.
# Plates were placed in a 37° C., 5% CO2 incubator for 72 hours. Plates were then removed from the incubator and equilibrated for 15 minutes at room temperature. 40 μl of CellTiter Glo reagent (Promega) was added to measure the relative level of metabolically active cells by quantifying intracellular ATP concentrations. Plates were incubated for 30 minutes at room temperature, and luminescence was measured. Percent viability was normalized to a vehicle control only using the following formula: % viability=100×(Lumsample−LumLC)/(LumHC−LumLC). Graphical curves were fitted using a nonlinear regression model with a sigmoidal dose response.
# [1] = target: T1, phosphorylated ERBB2 (pERBB2) (Homo sapiens, UniProt P04626); assay: Detection of phosphorylated ERBB2 (pERBB2) by ELISA in BT-474 cells; type: cell-based; details: four hour incubation
# T1 construct: endogenous in cells; host or cells: BT-474
# Method in brief: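 BT-474 cells were treated with compounds (fourfold dilutions, 10 μM to 0.01 nM final) for 4 h at 37 °C, then lysed. pERBB2 in lysates was quantified by ELISA with an HRP anti-phosphotyrosine detection antibody and TMB read at 450 nm; % relative activity was normalized to no-cell and 0.1% DMSO controls.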
# [2] = target: T2, phosphorylated EGFR (pEGFR) (Homo sapiens, UniProt P00533); assay: Detection of phosphorylated EGFR (pEGFR) by AlphaLISA in EGF-stimulated A431 cells; type: cell-based; details: A431 cells (10% FBS), 4 hours incubation, EGF 30 ng/mL for 10 minutes
# T2 construct: performed to measure phosphorylated EGFR levels using A431 cells (10% FBS); endogenous in cells; host or cells: A431
# Method in brief: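 pEGFR was quantified by AlphaLISA in lysates of A431 cells (10% FBS) given a 10 min pulse of EGF at 30 ng/mL after 4 h compound exposure at 37 °C. IC50 came from a four-parameter fit of % inhibition between DMSO and staurosporine controls.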
# T2 sequence (P00533 25-1210): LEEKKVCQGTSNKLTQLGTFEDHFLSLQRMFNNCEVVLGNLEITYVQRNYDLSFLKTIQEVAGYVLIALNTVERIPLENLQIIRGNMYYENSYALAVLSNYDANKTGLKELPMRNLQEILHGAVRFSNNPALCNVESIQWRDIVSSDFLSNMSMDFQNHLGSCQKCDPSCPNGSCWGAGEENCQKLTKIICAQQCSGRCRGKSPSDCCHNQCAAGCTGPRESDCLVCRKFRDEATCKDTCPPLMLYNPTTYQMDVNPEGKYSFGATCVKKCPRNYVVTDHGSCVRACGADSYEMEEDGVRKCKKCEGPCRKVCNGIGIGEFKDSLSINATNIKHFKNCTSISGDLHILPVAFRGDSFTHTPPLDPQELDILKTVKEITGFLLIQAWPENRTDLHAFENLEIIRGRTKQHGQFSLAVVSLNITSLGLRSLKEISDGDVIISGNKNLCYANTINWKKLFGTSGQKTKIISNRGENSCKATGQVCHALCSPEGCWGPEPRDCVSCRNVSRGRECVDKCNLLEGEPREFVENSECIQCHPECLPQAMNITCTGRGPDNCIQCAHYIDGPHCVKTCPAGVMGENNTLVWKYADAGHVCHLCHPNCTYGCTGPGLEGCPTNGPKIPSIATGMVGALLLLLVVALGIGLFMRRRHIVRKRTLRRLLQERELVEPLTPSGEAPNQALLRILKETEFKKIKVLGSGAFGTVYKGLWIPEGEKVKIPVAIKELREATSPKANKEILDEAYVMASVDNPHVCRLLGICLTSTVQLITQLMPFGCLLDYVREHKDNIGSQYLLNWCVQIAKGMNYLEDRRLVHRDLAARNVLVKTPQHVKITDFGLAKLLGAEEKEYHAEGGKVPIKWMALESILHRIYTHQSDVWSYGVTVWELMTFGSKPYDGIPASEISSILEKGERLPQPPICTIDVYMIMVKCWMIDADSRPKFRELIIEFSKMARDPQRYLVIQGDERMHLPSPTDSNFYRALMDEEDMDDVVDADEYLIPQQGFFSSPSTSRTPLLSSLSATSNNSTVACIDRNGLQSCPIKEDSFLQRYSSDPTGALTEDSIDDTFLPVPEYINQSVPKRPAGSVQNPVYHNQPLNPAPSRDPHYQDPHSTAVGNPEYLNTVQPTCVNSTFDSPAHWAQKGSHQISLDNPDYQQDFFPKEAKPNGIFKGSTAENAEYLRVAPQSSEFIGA
# T1 sequence (P04626 23-1255): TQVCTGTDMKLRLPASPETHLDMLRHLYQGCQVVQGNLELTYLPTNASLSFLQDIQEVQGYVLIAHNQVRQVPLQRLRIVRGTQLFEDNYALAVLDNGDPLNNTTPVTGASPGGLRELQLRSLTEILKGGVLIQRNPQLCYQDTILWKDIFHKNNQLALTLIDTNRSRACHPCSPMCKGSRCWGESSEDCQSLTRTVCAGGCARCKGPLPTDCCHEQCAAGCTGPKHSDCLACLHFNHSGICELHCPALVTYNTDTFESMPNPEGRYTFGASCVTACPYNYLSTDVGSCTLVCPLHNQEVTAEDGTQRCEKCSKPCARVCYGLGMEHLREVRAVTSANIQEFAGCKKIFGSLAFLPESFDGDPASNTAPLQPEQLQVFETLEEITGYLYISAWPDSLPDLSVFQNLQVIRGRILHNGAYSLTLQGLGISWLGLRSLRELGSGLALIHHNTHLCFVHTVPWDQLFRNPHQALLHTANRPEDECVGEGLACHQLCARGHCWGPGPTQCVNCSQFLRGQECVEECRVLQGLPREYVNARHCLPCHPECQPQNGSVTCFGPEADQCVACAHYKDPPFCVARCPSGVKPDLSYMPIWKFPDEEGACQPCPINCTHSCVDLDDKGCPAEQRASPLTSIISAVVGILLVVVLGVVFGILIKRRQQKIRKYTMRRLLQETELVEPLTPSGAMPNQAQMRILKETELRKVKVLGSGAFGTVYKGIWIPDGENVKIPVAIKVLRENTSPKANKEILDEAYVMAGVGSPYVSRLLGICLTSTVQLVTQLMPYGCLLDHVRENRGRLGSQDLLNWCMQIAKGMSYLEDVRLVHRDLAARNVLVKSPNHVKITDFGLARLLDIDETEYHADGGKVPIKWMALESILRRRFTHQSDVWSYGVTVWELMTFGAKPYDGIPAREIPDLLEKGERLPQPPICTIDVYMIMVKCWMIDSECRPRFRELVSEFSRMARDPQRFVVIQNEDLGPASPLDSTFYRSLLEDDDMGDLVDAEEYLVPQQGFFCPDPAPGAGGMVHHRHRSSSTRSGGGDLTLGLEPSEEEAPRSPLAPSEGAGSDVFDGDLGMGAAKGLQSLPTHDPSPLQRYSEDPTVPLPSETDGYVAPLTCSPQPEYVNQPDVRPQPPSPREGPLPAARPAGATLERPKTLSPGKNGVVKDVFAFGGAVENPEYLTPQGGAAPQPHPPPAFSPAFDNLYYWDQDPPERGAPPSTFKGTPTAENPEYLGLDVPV
# Chain of Ba/F3 ERBB2 YVMA (P04626 with tags, fused parts or gaps DUP772-775): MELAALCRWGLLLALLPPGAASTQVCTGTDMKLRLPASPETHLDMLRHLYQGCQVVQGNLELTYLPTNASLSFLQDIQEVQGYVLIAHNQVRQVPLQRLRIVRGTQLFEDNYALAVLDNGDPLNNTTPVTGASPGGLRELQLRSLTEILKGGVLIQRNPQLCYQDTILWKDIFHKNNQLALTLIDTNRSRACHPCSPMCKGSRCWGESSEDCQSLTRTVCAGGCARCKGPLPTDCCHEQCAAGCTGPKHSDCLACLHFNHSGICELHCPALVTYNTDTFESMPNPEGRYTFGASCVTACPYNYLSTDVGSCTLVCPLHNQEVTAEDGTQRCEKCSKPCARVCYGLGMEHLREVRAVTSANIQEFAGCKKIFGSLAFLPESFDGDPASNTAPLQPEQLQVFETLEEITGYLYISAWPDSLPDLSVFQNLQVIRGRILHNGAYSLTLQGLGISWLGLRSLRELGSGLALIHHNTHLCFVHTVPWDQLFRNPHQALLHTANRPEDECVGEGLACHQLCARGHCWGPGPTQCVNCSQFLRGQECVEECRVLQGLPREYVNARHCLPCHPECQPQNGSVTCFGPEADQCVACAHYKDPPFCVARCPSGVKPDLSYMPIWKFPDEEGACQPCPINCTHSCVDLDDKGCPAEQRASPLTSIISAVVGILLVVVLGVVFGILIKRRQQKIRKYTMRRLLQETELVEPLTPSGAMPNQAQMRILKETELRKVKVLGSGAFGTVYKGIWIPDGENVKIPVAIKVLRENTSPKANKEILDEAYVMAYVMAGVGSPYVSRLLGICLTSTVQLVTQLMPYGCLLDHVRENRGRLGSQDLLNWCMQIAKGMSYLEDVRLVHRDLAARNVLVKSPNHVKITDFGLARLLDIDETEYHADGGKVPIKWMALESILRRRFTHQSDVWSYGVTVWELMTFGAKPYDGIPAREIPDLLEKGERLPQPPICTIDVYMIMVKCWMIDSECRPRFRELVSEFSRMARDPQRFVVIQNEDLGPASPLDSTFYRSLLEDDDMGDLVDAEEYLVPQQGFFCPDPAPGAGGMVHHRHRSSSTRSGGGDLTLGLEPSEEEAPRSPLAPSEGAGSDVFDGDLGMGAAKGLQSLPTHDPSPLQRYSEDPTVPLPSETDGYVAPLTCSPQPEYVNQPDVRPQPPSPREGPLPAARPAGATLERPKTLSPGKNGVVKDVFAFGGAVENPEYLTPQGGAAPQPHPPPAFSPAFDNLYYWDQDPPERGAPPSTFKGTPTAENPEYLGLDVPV
Structure (SMILES),IC50 [1] [nM],IC50 [2] [nM],GI50 (Ba/F3 ERBB2 YVMA) [nM]
"CN(C)C/C=C/C(=O)N1CCN2c3ccc4ncnc(Nc5ccc(Oc6ccn7ncnc7c6)cc5F)c4c3OC[C@H]2C1 [Compound 119, (R,E)-1-(4-((4-([1,2,4]triazolo[1,5-a]pyridin-7-yloxy)-2-fluorophenyl)amino)-6a,7,9,10-tetrahydropyrazino[1′,2′:4,5][1,4]oxazino[2,3-f]quinazolin-8(6H)-yl)-4-(dimethylamino)but-2-en-1-one]",29,1950,11.7
"CN(C)C/C=C/C(=O)N1CCN2c3ccc4ncnc(Nc5cc(F)c(Oc6ccn7ncnc7c6)cc5F)c4c3OC[C@H]2C1 [Compound 97, (R,E)-1-(4-((4-([1,2,4]triazolo[1,5-a]pyridin-7-yloxy)-2,5-difluorophenyl)amino)-6a,7,9,10-tetrahydropyrazino[1′,2′:4,5][1,4]oxazino[2,3-f]quinazolin-8(6H)-yl)-4-(dimethylamino)but-2-en-1-one]",15.2,8060,3.6
"CN(C)C/C=C/C(=O)N1CCN2C[C@@H]1COc1c2ccc2ncnc(Nc3cc(F)c(Oc4ccn5ncnc5c4)cc3F)c12 [Compound 96, (E)-1-((3R)-13-((4-([1,2,4]triazolo[1,5-a]pyridin-7-yloxy)-2,5-difluorophenyl)amino)-2,3,5,6-tetrahydro-4H-3,7-methano[1,4,7]oxadiazonino[2,3-f]quinazolin-4-yl)-4-(dimethylamino)but-2-en-1-one]",19.1,221,9.12
"CN(C)C/C=C/C(=O)N1CCN2c3ncc4ncnc(Nc5cc(F)c(Oc6ccn7ncnc7c6)cc5F)c4c3OC[C@H]2C1 [Compound 115, (R,E)-1-(4-((4-([1,2,4]triazolo[1,5-a]pyridin-7-yloxy)-2,5-difluorophenyl)amino)-6a,7,9,10-tetrahydropyrazino[1,2-d]pyrimido[5′,4′:4,5]pyrido[3,2-b][1,4]oxazin-8(6H)-yl)-4-(dimethylamino)but-2-en-1-one]",30.2,4770,7.22
"Cc1cc(Nc2ncnc3cc4c(cc23)N2CCN(C(=O)/C=C/CN(C)C)C[C@@H]2CO4)ccc1Oc1ccc2c(c1)ncn2C [Compound 12, (R,E)-4-(dimethylamino)-1-(11-((3-methyl-4-((1-methyl-1H-benzo[d]imidazol-5-yl)oxy)phenyl)amino)-1,2,4a,5-tetrahydropyrazino[1′,2′:4,5][1,4]oxazino[3,2-g]quinazolin-3(4H)-yl)but-2-en-1-one]",83.7,2840,206
"Cc1cc(Nc2ncnc3ccc4c(c23)OC[C@@H]2CN(C(=O)/C=C/CN(C)C)CCN42)ccc1Oc1ccn2ncnc2c1 [Compound 19, (S,E)-1-(4-((4-([1,2,4]triazolo[1,5-a]pyridin-7-yloxy)-3-methylphenyl)amino)-6a,7,9,10-tetrahydropyrazino[1′,2′:4,5][1,4]oxazino[2,3-f]quinazolin-8(6H)-yl)-4-(dimethylamino)but-2-en-1-one formate]",11.1,679,5
"CN(C)C/C=C/C(=O)N1CCN2C[C@@H]1COc1c2ccc2ncnc(Nc3ccc(Oc4ccn5ncnc5c4)cc3F)c12 [Compound 78, (E)-1-((3R)-13-((4-([1,2,4]triazolo[1,5-a]pyridin-7-yloxy)-2-fluorophenyl)amino)-2,3,5,6-tetrahydro-4H-3,7-methano[1,4,7]oxadiazonino[2,3-f]quinazolin-4-yl)-4-(dimethylamino)but-2-en-1-one]",8.87,341,10.9

# Now from value to compound, other results behind:
IC50 [1] [nM],IC50 [2] [nM],Structure (SMILES),GI50 (Ba/F3 ERBB2 YVMA) [nM]
828,> 10000,"Cc1cc(Nc2ncnc3cc4c(nc23)N2CCN(C)C[C@H]2CO4)ccc1Oc1cc2ncn(C)c2cn1 [Compound 127, (S)-3-methyl-N-(3-methyl-4-((3-methyl-3H-imidazo[4,5-c]pyridin-6-yl)oxy)phenyl)-1,2,3,4,4a,5-hexahydropyrazino[1,2-d]pyrimido[4′,5′:5,6]pyrido[3,2-b][1,4]oxazin-11-amine]",> 500
62.1,> 10000,"Cc1cc(Nc2ncnc3ccc4c(c23)O[C@H]2CCN(C)C[C@@H]2N4)ccc1Oc1ccc2c(c1)ncn2C (relative stereo) [Compound 126, trans-9-methyl-N-(3-methyl-4-((1-methyl-1H-benzo[d]imidazol-5-yl)oxy)phenyl)-7a,8,9,10,11,11a-hexahydro-7H-pyrido[3′,4′:5,6][1,4]oxazino[2,3-f]quinazolin-1-amine]",140
5.8,130,"Cc1cc(Nc2ncnc3cc4c(nc23)N2CCN(C(=O)/C=C/CN(C)C)C[C@H]2CO4)ccc1Oc1ccn2ncnc2c1 [Compound 16, (S,E)-1-(11-((4-([1,2,4]triazolo[1,5-a]pyridin-7-yloxy)-3-methylphenyl)amino)-1,2,4a,5-tetrahydropyrazino[1,2-d]pyrimido[4′,5′:5,6]pyrido[3,2-b][1,4]oxazin-3(4H)-yl)-4-(dimethylamino)but-2-en-1-one]",1.47
240,> 10000,"Cc1cc(Nc2ncnc3ccc4c(c23)OC[C@H]2CN(C(=O)/C=C/CN(C)C)CCN42)ccc1Oc1ccn2ncnc2c1 [Compound 18, (R,E)-1-(4-((4-([1,2,4]triazolo[1,5-a]pyridin-7-yloxy)-3-methylphenyl)amino)-6a,7,9,10-tetrahydropyrazino[1′,2′:4,5][1,4]oxazino[2,3-f]quinazolin-8(6H)-yl)-4-(dimethylamino)but-2-en-1-one]",223
30.7,1780,"C=CC(=O)N1CCN2c3cc4c(Nc5ccc(Oc6ccc7c(c6)ncn7C)c(C)c5)ncnc4cc3OC[C@H]2C1 [Compound 7, (R)-1-(11-((3-methyl-4-((1-methyl-1H-benzo[d]imidazol-5-yl)oxy)phenyl)amino)-1,2,4a,5-tetrahydropyrazino[1′,2′:4,5][1,4]oxazino[3,2-g]quinazolin-3(4H)-yl)prop-2-en-1-one]",112
17.2,> 10000,"Cc1cc(Nc2ncnc3ccc4c(c23)OC[C@H]2COCCN42)ccc1Oc1ccn2ncnc2c1 [Compound 85, (R)—N-(4-([1,2,4]triazolo[1,5-a]pyridin-7-yloxy)-3-methylphenyl)-6a,7,9,10-tetrahydro-6H-[1,4]oxazino[4′,3′:4,5][1,4]oxazino[2,3-f]quinazolin-4-amine]",181
8.75,189,"Cc1cc(Nc2ncnc3ccc4c(c23)OC[C@H]2CN4CCN2C(=O)/C=C/CN(C)C)ccc1Oc1ccn2ncnc2c1 [Compound 27, (E)-1-((3R)-13-((4-([1,2,4]triazolo[1,5-a]pyridin-7-yloxy)-3-methylphenyl)amino)-2,3,5,6-tetrahydro-4H-3,7-methano[1,4,7]oxadiazonino[2,3-f]quinazolin-4-yl)-4-(dimethylamino)but-2-en-1-one]",7.69
56.1,> 10000,"Cc1cc(Nc2ncnc3cnc4c(c23)O[C@@H]2CCNC[C@H]2N4C)ccc1Oc1ccc2c(c1)ncn2C [Compound 135, (7aR,11aR)-7-methyl-N-(3-methyl-4-((1-methyl-1H-benzo[d]imidazol-5-yl)oxy)phenyl)-7a,8,9,10,11,11a-hexahydro-7H-pyrido[4,3-b]pyrimido[5′,4′:4,5]pyrido[2,3-e][1,4]oxazin-1-amine]",88.9
